Our source for the IC50 values is patent US20240067617A1 (Albireo AB, priority 2022, published 2024).

pIC50: −log10 of the molar value. A value given as a limit tells only on which side of the number the result lay.

One assay concerns the target T1, hIBAT (Homo sapiens, UniProt Q12908).
T1 construct: expressed in transfected cells; kept under Puromycin selection
T1 sequence (Q12908 1-348): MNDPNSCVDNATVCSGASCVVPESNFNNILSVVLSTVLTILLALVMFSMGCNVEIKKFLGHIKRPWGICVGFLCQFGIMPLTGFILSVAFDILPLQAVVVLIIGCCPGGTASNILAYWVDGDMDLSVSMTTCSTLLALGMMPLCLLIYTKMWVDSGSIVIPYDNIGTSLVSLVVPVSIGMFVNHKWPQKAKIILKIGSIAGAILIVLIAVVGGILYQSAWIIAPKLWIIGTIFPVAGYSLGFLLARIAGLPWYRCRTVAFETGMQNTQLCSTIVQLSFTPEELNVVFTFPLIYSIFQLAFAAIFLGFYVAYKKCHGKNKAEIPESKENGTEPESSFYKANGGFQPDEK
The experiment in a line: IBAT (h/m) assay: 3H-taurocholic acid uptake in human IBAT-overexpressing cells. It is filed as cell-based. The following applies: 0.25 μM 3H-taurocholic acid + 5 μM cold taurocholic acid, 20 minutes at 37° C., highest test concentration 10 μM. The protocol:
IBAT (h/m) Assay Protocol
10,000 cells (Human or Mouse IBAT-overexpressing cells) were seeded in 96-wells plate (Corning CLS3809) in 200 μL MEM-alpha medium (Gibco 12571-063) supplemented with 10% FBS (Gibco 10438026) containing Puromycin (Gibco A1113803) (10 μg/mL) and incubated at 37° C. in 5% CO2 for 48 hours. After incubation, media was decanted from the wells and cells were washed two times with 300 μL of basal MEM-alpha medium (FBS-free). After decanting basal MEM-alpha medium each time, plates were tapped against paper towel to ensure maximum removal of residual media. Test inhibitor dilutions (highest test concentration being 10 μM, 3-fold serial dilution, 10 points) prepared in DMSO (Sigma D2650) were added in incubation mix (maintaining 0.2% final DMSO concentration) containing 0.25 μM 3H-taurocholic acid (ARC ART-1368) and 5 μM of cold taurocholic acid (Sigma T4009). 50 μL of incubation mix containing test inhibitors was then added to the wells (in duplicate) and the plates were incubated for 20 minutes in a CO2 incubator at 37° C. After incubation, the reaction was stopped by keeping the plates on ice water mix for 2-3 minutes and then the incubation mix was aspirated completely from the wells. The wells were washed two times with 250 μL of chilled unlabelled 1 mM taurocholic acid dissolved in HEPES (Gibco 15630080)-buffered (10 mM) HBSS (Gibco 14175079) (pH 7.4). The plates were tapped against a paper towel after every wash to ensure maximum removal of blocking buffer.
100 μL of MicroScint-20 (PerkinElmer 6013621) was added to the wells and kept overnight at RT before reading the plates in TopCount NXT™ Microplate Scintillation and Luminescence Counter from PerkinElmer under 3H Test protocol (set at 120 seconds reading time per well).
(§1) Preparation of Test Compound Dilutions
(§2) All test compounds were provided in powder form at RT. 10 mM DMSO stocks of the test compounds were prepared, aliquoted and stored at −20° C. From the 10 mM DMSO stock of the compounds, a 3-fold serial dilution in DMSO was prepared to get a total of 10 dilutions of the test compounds. 0.5 μL of this dilution in DMSO was added to 250 μL of FBS-free basal media containing 3H-taurocholic acid and cold taurocholic acid to prepare the incubation mixture.

The target in a further assay is T2, hLBAT (Homo sapiens, UniProt Q14973).
T2 construct: expressed in transfected cells; kept under Geneticin selection
T2 sequence (Q14973 1-349): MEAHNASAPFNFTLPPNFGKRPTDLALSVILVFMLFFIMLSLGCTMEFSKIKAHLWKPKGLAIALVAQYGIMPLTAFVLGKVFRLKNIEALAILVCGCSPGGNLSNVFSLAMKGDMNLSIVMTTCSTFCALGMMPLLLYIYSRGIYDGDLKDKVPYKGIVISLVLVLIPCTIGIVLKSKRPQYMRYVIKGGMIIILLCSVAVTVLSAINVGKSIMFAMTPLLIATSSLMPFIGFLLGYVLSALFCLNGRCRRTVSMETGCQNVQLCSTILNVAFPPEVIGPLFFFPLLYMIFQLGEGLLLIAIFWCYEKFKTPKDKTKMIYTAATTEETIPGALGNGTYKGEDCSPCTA
Nature of the assay: LBAT (h/m) assay: 3H-taurocholic acid uptake in human LBAT-overexpressing cells. It is filed as cell-based. The note with it: 0.3 μM 3H-taurocholic acid + 7.5 μM cold taurocholic acid, 20 minutes at 37° C. The method, then: LBAT (h/m) Assay Protocol
20,000 cells (Human or Mouse LBAT-overexpressing cells) were seeded in 96-wells plate (Corning CLS3809) in 100 μL MEM-alpha medium (Gibco 12571-063) supplemented with 10% FBS (Gibco 10438026) containing Geneticin (Gibco 10131-027) (1 mg/mL) and incubated at 37° C. in 5% CO2 for 24 hours. After incubation, media was decanted from the wells and cells were washed two times with 300 μL of basal MEM-alpha medium (FBS-free). After decanting basal MEM-alpha medium each time, plates were tapped against paper towel to ensure maximum removal of residual media. For human LBAT, incubation mix was prepared by adding test inhibitor dilutions (3-fold serial dilution in DMSO (Sigma D2650), 10 points) in MEM-alpha (without FBS) containing 0.3 μM 3H-taurocholic acid (ARC ART-1368) and 7.5 μM cold taurocholic acid (Sigma T4009) (maintaining 0.2% final DMSO concentration). For mouse LBAT, incubation mix was prepared by adding test inhibitor dilutions (3-fold serial dilution in DMSO, 10 points) in MEM-alpha (without FBS) containing 0.3 μM 3H-taurocholic acid and 25 μM cold taurocholic acid maintaining 0.2% final DMSO concentration). 50 μL of incubation mix containing test inhibitors was then added to the wells (in duplicate) and the plates were incubated for 20 minutes in a CO2 incubator at 37° C. After incubation, the reaction was stopped by keeping the plates on ice water mix for 2-3 minutes and then the incubation mix was aspirated completely from the wells. The wells were washed two times with 250 μL of chilled unlabelled 1 mM taurocholic acid dissolved in HEPES (Gibco 15630080)-buffered (10 mM) HBSS (Gibco 14175079) (pH 7.4). The plates were tapped against a paper towel after every wash to ensure maximum removal of blocking buffer.
100 μL of MicroScint-20 (PerkinElmer 6013621) was added to the wells and kept overnight at RT before reading the plates in TopCount NXT™ Microplate Scintillation and Luminescence Counter from PerkinElmer under 3H Test protocol (set at 120 seconds reading time per well, with normal plate orientation).
as §1, §2

What is called pIC50 is the negative decadic logarithm of the IC50, by convention in mol/L. For the compound `CCCCC1CN(c2ccc(F)cc2)c2cc(OC)c(CSCC(=O)O)cc2S(=O)(=O)N1C` (single isomer, unassigned) [30, enantiomer 2], the pIC50 on hIBAT is 6.46; at hLBAT, 6.70.

Consider `CCCCC1(CC)CN(c2ccc(F)cc2)c2cc(OC)c(CSC(C)(C)C(=O)O)cc2S(=O)(=O)C1` (single isomer, unassigned) [34, enantiomer 1], for which the values for the pIC50 at hIBAT and on hLBAT were 6.79 and 6.96, respectively.

Turning to `CCCCC1(CC)CN(c2ccc(F)cc2)c2cc(OC)c(CSC(C)(C)C(=O)O)cc2S(=O)(=O)C1` (single isomer, unassigned) [34, enantiomer 2], the figures for the pIC50 at hIBAT and on hLBAT were 5.71 and 6.81, respectively.

Turning to `CCCCC1CN(c2ccccc2)c2cc(OC)c(CSCC(=O)O)cc2S(=O)(=O)N1C` (single isomer, unassigned) [36, enantiomer 1], the pIC50 at hIBAT and on hLBAT was less than 5.00 throughout.

Take `CCCCC1CN(c2ccccc2)c2cc(OC)c(CSCC(=O)O)cc2S(=O)(=O)N1C` (single isomer, unassigned) [36, enantiomer 2]: the pIC50 at hIBAT was 5.56; on hLBAT it was 6.81.

In the case of `CCCCC1CN(c2ccccc2)c2cc(OC)c(CSC(C)(C)C(=O)O)cc2S(=O)(=O)N1C` (single isomer, unassigned) [38, enantiomer 1], the values for the pIC50 on hIBAT and at hLBAT were less than 5.00 and 5.95, respectively.

On to `CCCCC1CN(c2ccccc2)c2cc(OC)c(CSC(C)(C)C(=O)O)cc2S(=O)(=O)N1C` (single isomer, unassigned) [38, enantiomer 2], for which the pIC50 at hIBAT was 5.80; at hLBAT, 8.18.

Regarding `CCCCC1(CC)CN(c2ccc(F)cc2)c2cc(OC)c(CSCC(=O)O)cc2S(=O)(=O)C1` (single isomer, unassigned) [40, enantiomer 1], the pIC50 on hIBAT is 8.85; at hLBAT, less than 5.00.

`CCCCC1(CC)CN(c2ccc(F)cc2)c2cc(OC)c(CSCC(=O)O)cc2S(=O)(=O)C1` (single isomer, unassigned) [40, enantiomer 2]: the figures for the pIC50 on hIBAT and on hLBAT were 7.44 and less than 5.00, respectively.

`CCCCC1(C)CN(c2ccccc2)c2cc(OC)c(CSC(C)(C)C(=O)O)cc2S(=O)(=O)C1` (single isomer, unassigned) [42, enantiomer 1]: the pIC50 is 6.15 on hIBAT and 6.65 on hLBAT.

Regarding `CCCCC1(C)CN(c2ccccc2)c2cc(OC)c(CSC(C)(C)C(=O)O)cc2S(=O)(=O)C1` (single isomer, unassigned) [42, enantiomer 2], the pIC50 was less than 5.00 at hIBAT and 6.62 at hLBAT.

Take `CCCCC1(CC)CN(c2ccccc2)c2cc(OC)c(CSCC(=O)O)cc2S(=O)(=O)N1` (single isomer, unassigned) [45, enantiomer 1]: the values for the pIC50 at hIBAT and on hLBAT were 7.55 and less than 6.00, respectively.

Regarding `CCCCC1(CC)CN(c2ccccc2)c2cc(S(C)(=O)=O)c(CSCC(=O)O)cc2S(=O)(=O)N1` (single isomer, unassigned) [48, enantiomer 1], the pIC50 on hIBAT was 6.64; on hLBAT, less than 6.00.

As to `CCCCC1(CC)CN(c2ccccc2)c2cc(S(C)(=O)=O)c(CSCC(=O)O)cc2S(=O)(=O)N1` (single isomer, unassigned) [48, enantiomer 2], the pIC50 is 8.24 at hIBAT and less than 6.00 on hLBAT.

`CCCCC1(CCCC)CN(c2ccccc2)c2cc(SC)c(CSCC(=O)O)cc2S(=O)(=O)C1` [Example 3, 2-(((3,3-dibutyl-7-(methylthio)-1,1-dioxido-5-phenyl-2,3,4,5-tetrahydro-1,5-benzothiazepin-8-yl)methyl)thio)acetic acid]: the pIC50 is 8.77 at hIBAT and 5.47 on hLBAT.

With `CCCCC1(CCCC)CN(c2ccccc2)c2cc(SC)c(CSCC(=O)O)cc2S(=O)(=O)N1` [Example 8, 2-(((3,3-dibutyl-7-(methylthio)-1,1-dioxido-5-phenyl-2,3,4,5-tetrahydro-1,2,5-benzothiadiazepin-8-yl)methyl)thio)acetic acid], the pIC50 at hIBAT was 9.10; at hLBAT, less than 5.48.

On to `CCCCC1(CCCC)CN(c2ccccc2)c2cc(SC)c(CSC(C)(C)C(=O)O)cc2S(=O)(=O)C1` [Example 17, 2-(((3,3-Dibutyl-7-(methylthio)-1,1-dioxido-5-phenyl-2,3,4,5-tetrahydro-1,5-benzothiazepin-8-yl)methyl)thio)-2-methylpropanoic acid], for which the results for the pIC50 at hIBAT and at hLBAT were 7.06 and 6.67, respectively.

As for `CCCCC1(CC)CN(c2ccccc2)c2cc(SC)c(CSCC(=O)O)cc2S(=O)(=O)N1C` (stereo not drawn) [Example 20, 2-(((3-Butyl-3-ethyl-2-methyl-7-(methylthio)-1,1-dioxido-5-phenyl-2,3,4,5-tetrahydro-1,2,5-benzothiadiazepin-8-yl)methyl)thio)acetic acid], the pIC50 is 6.28 at hIBAT and 5.60 on hLBAT.

Turning to `CCCCC1(CCCC)CN(c2ccccc2)c2cc(SC)c(CSCC(=O)O)cc2S(=O)(=O)N1C` [Example 22, 2-(((3,3-dibutyl-2-methyl-7-(methylthio)-1,1-dioxido-5-phenyl-2,3,4,5-tetrahydro-1,2,5-benzothiadiazepin-8-yl)methyl)thio)acetic acid], the values for the pIC50 on hIBAT and at hLBAT were 6.05 and less than 5.48, respectively.

With `CCCCC1(CCCC)CN(c2ccccc2)c2cc(SC)c(CSC(C)(C)C(=O)O)cc2S(=O)(=O)N1C` [Example 23, 2-(((3,3-dibutyl-2-methyl-7-(methylthio)-1,1-dioxido-5-phenyl-2,3,4,5-tetrahydro-1,2,5-benzothiadiazepin-8-yl)methyl)thio)-2-methylpropanoic acid], the pIC50 is less than 5.48 at hIBAT and 6.84 at hLBAT.

In the case of `CCCCC1(CC)CN(c2ccccc2)c2cc(SC)c(CSC(C)(C)C(=O)O)cc2S(=O)(=O)N1C` (stereo not drawn) [Example 24], the pIC50 at hIBAT was less than 5.48; at hLBAT, 7.07.
